25 molecules from US20260062422A1 (Halda Therapeutics OpCo, Inc., priority 2022, published 2026) can be followed below.

The test system of this assay is T47D cells. As to the kind of experiment: Cellular growth inhibition assay for T47D cells, CellTiter-Glo. It counts as cell-based, human. The settings on record: 72 hours treatment, CellTiter-Glo 2.0 cell viability. In a few lines: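 Growth inhibition as GI50, fitted with four parameters to CellTiter-Glo luminescence after 72 h of compound exposure (0.5% DMSO). Cells were T47D, grown in insulin-supplemented (0.2 units/mL) DMEM with 10% FBS and treated one day post-seeding.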
(ATP-based viability assays read luminescence as a measure of living cells.)

By GI50 is commonly meant the concentration that inhibits growth by half. The low end stands for greater sensitivity of the cells, the high end for lower sensitivity of the cells.

The structures appear in SMILES notation.

For the setting “Homo sapiens, T47D, 72 h”, `Cc1sc2c(c1C)C(c1ccc(OCCOC3CCN(c4ncc(C(=O)N[C@H]5C(C)(C)[C@H](Oc6ccc(C#N)c(Cl)c6)C5(C)C)cn4)CC3)cc1)=N[C@@H](CC(=O)O)c1nnc(C)n1-2` [Compound I-38] registered a GI50 of 500 to 1500 nM.
On the same count and under the same terms, the figure for `Cc1sc2c(c1C)C(c1ccc(N3CC(C4CCN(c5ncc(C(=O)N[C@H]6C(C)(C)[C@H](Oc7ccc(C#N)c(Cl)c7)C6(C)C)cn5)CC4)C3)cc1)=N[C@@H](C)c1nnc(C)n1-2` [Compound I-271] is 500 to 1500 nM; for `CCNC(=O)C[C@@H]1N=C(c2ccc(OCCOCCOC3CCN(c4ncc(C(=O)N[C@H]5C(C)(C)[C@H](Oc6ccc(C#N)c(Cl)c6)C5(C)C)cn4)CC3)cc2)c2c(sc(C)c2C)-n2c(C)nnc21` [Compound I-44] it is 500 to 1500 nM; for `Cc1sc2c(c1C)C(c1ccc(CC3CC4(CCN(c5ncc(C(=O)N[C@H]6C(C)(C)[C@H](Oc7ccc(C#N)c(Cl)c7)C6(C)C)cn5)CC4)C3)cc1)=N[C@@H](C)c1nnc(C)n1-2` [Compound I-436] it is below 500 nM.
Still for that read-out and setting: the figure for `Cc1sc2c(c1C)C(c1ccc(N3CC(CC4CCN(c5ncc(C(=O)N[C@H]6C(C)(C)[C@H](Oc7ccc(C#N)c(Cl)c7)C6(C)C)cn5)CC4)C3)cc1)=N[C@@H](C)c1nnc(C)n1-2` [Compound I-270] is below 500 nM; for `Cc1sc2c(c1C)C(c1ccc(CCC3CC4(CCCN(c5ncc(C(=O)N[C@H]6C(C)(C)[C@H](Oc7ccc(C#N)c(Cl)c7)C6(C)C)cn5)C4)C3)cc1)=N[C@@H](Cc1ncco1)c1nnc(C)n1-2` [Compound I-241] it is below 500 nM.
Still for that read-out and setting: the figure for `Cc1sc2c(c1C)C(c1ccc(OC3CC4(C3)CC3(CCN(c5ncc(C(=O)N[C@H]6C(C)(C)[C@H](Oc7ccc(C#N)c(Cl)c7)C6(C)C)cn5)CC3)C4)cc1)=N[C@@H](Cc1ncco1)c1nnc(C)n1-2` [Compound I-283] is below 500 nM.
In the case of `CCNC(=O)C[C@@H]1N=C(c2ccc(OCCCN(C)c3ncc(C(=O)N[C@H]4C(C)(C)[C@H](Oc5ccc(C#N)c(Cl)c5)C4(C)C)cn3)cc2)c2c(sc(C)c2C)-n2c(C)nnc21` [Compound I-81], the GI50 (Homo sapiens, T47D, 72 h) is 500 to 1500 nM.
Still for that read-out and setting: the figure for `CCNC(=O)C[C@@H]1N=C(c2ccc(OCCCC#Cc3ncc(C(=O)N[C@H]4C(C)(C)[C@H](Oc5ccc(C#N)c(Cl)c5)C4(C)C)cn3)cc2)c2c(sc(C)c2C)-n2c(C)nnc21` [Compound I-83] is 500 to 1500 nM; for `Cc1sc2c(c1C)C(c1ccc(C[C@H]3C[C@@H]([C@@H]4CCCN(c5ncc(C(=O)N[C@H]6C(C)(C)[C@H](Oc7ccc(C#N)c(Cl)c7)C6(C)C)cn5)C4)C3)cc1)=N[C@@H](Cc1ncco1)c1nnc(C)n1-2` [Compound I-161] it is below 500 nM; for `CCNC(=O)C[C@@H]1N=C(c2ccc(OC3CCN(C4CCN(c5ncc(C(=O)N[C@H]6C(C)(C)[C@H](Oc7ccc(C#N)c(Cl)c7)C6(C)C)cn5)CC4)C3)cc2)c2c(sc(C)c2C)-n2c(C)nnc21` (stereo partly shown) [Compound I-85] it is below 500 nM.
The same measure, in the same setting: in the case of `CCNC(=O)C[C@@H]1N=C(c2ccc(N3CC(N(C)C4CN(c5ncc(C(=O)N[C@H]6C(C)(C)[C@H](Oc7ccc(C#N)c(Cl)c7)C6(C)C)cn5)C4)C3)cc2)c2c(sc(C)c2C)-n2c(C)nnc21` [Compound I-121] it was below 500 nM; in that of `CCNC(=O)C[C@@H]1N=C(c2ccc(N3CCC(CN4CC(Oc5ncc(C(=O)N[C@H]6C(C)(C)[C@H](Oc7ccc(C#N)c(Cl)c7)C6(C)C)cn5)C4)CC3)cc2)c2c(sc(C)c2C)-n2c(C)nnc21` [Compound I-124], 500 to 1500 nM; in that of `Cc1sc2c(c1C)C(c1ccc(OC3CC4(CCN(c5ncc(C(=O)N[C@H]6C(C)(C)[C@H](Oc7ccc(C#N)c(Cl)c7)C6(C)C)cn5)CC4)C3)cc1)=NC(Cc1ncco1)c1nnc(C)n1-2` (stereo partly shown) [Compound I-166], 500 to 1500 nM.
On to `Cc1sc2c(c1C)C(c1ccc(N3CC(C4CCN(c5ncc(C(=O)N[C@H]6C(C)(C)[C@H](Oc7ccc(C#N)c(Cl)c7)C6(C)C)cn5)CC4)C3)cc1)=NC(Cc1ncco1)c1nnc(C)n1-2` (stereo partly shown) [Compound I-209], for which the GI50 (Homo sapiens, T47D, 72 h) was below 500 nM.
Consider `Cc1sc2c(c1C)C(c1ccc(CC3CC4(CCN(c5ncc(C(=O)N[C@H]6C(C)(C)[C@H](Oc7ccc(C#N)c(Cl)c7)C6(C)C)cn5)CC4)C3)cc1)=N[C@@H](C)c1nnc(C)n1-2` [Compound I-303], for which the concentration for 50% growth inhibition (GI50) is below 500 nM.
For the molecule `Cc1sc2c(c1C)C(c1ccc(Cl)cc1)=N[C@H](CC(=O)NCCOCCOCCOCCOCCOC1CCN(c3ncc(C(=O)N[C@H]4C(C)(C)[C@H](Oc5ccc(C#N)c(Cl)c5)C4(C)C)cn3)CC1)c1nnc(C)n1-2` [Compound I-14], the GI50 (Homo sapiens, T47D, 72 h) was 500 to 1500 nM.
On to `Cc1sc2c(c1C)C(c1cccc(OCCOC3CCN(c4ncc(C(=O)N[C@H]5C(C)(C)[C@H](Oc6ccc(C#N)c(Cl)c6)C5(C)C)cn4)CC3)c1)=N[C@@H](CC(=O)O)c1nnc(C)n1-2` [Compound I-41], for which, for the setting “Homo sapiens, T47D, 72 h”, the GI50 is 1500 to 3000 nM.
Still for that read-out and setting: the figure for `Cc1sc2c(c1C)C(c1ccc(OC3CN(CC4CCN(c5ncc(C(=O)N[C@H]6C(C)(C)[C@H](Oc7ccc(C#N)c(Cl)c7)C6(C)C)cn5)CC4)C3)cc1)=N[C@H](Cc1ncco1)c1nnc(C)n1-2` [Compound I-169] is below 500 nM.
As to `CCNC(=O)C[C@@H]1N=C(c2ccc(OCCCCc3ncc(C(=O)N[C@H]4C(C)(C)[C@H](Oc5ccc(C#N)c(Cl)c5)C4(C)C)cn3)cc2)c2c(sc(C)c2C)-n2c(C)nnc21` [Compound I-86], the GI50 (Homo sapiens, T47D, 72 h) lay in the range of 500 to 1500 nM.
The same measure, in the same setting: in the case of `CCNC(=O)C[C@@H]1N=C(c2ccc(C#CCN3CCN(c4ncc(C(=O)N[C@H]5C(C)(C)[C@H](Oc6ccc(C#N)c(Cl)c6)C5(C)C)cn4)CC3)cc2)c2c(sc(C)c2C)-n2c(C)nnc21` [Compound I-54, N-[3-(3-chloro-4-cyano-phenoxy)-2,2,4,4-tetramethyl-cyclobutyl]-2-[4-[3-[4-[(9S)-9-[2-(ethylamino)-2-oxo-ethyl]-4,5,13-trimethyl-3-thia-1,8,11,12-tetrazatricyclo[8.3.0.02,6]trideca-2(6),4,7,10,12-pentaen-7-yl]phenyl]prop-2-ynyl]piperazin-1-yl]pyrimidine-5-carboxamide] it was 500 to 1500 nM.
The same measure, in the same setting: in the case of `Cc1sc2c(c1C)C(c1ccc(OC3CC4(CCN(c5ncc(C(=O)N[C@H]6C(C)(C)[C@H](Oc7ccc(C#N)c(Cl)c7)C6(C)C)cn5)CC4)C3)cc1)=N[C@@H](Cc1ncco1)c1nnc(C)n1-2` [Compound I-49, N-[3-(3-chloro-4-cyano-phenoxy)-2,2,4,4-tetramethyl-cyclobutyl]-2-[2-[4-[(9S)-4,5,13-trimethyl-9-(oxazol-2-ylmethyl)-3-thia-1,8,11,12-tetrazatricyclo[8.3.0.02,6]trideca-2(6),4,7,10,12-pentaen-7-yl]phenoxy]-7-azaspiro[3.5]nonan-7-yl]pyrimidine-5-carboxamide] it was below 500 nM; in that of `Cc1sc2c(c1C)C(c1ccc(CC3CC(C4CCN(c5ncc(C(=O)N[C@H]6C(C)(C)[C@H](Oc7ccc(C#N)c(Cl)c7)C6(C)C)cn5)CC4)C3)cc1)=NC(Cc1ncco1)c1nnc(C)n1-2` (stereo partly shown) [Compound I-136], below 500 nM.
Same read-out and setting: in the case of `CCNC(=O)C[C@@H]1N=C(c2ccc(Oc3ncc(C(=O)N[C@H]4C(C)(C)[C@H](Oc5ccc(C#N)c(Cl)c5)C4(C)C)cn3)cc2)c2c(sc(C)c2C)-n2c(C)nnc21` [Compound I-84] it was 1500 to 3000 nM.
Molecule `Cc1sc2c(c1C)C(c1ccc(C#CCN3CCN(c4ncc(C(=O)N[C@H]5C(C)(C)[C@H](Oc6ccc(C#N)c(Cl)c6)C5(C)C)cn4)CC3)cc1)=N[C@@H](CC(=O)OC(C)(C)C)c1nnc(C)n1-2` [Compound I-55] returned a GI50 (Homo sapiens, T47D, 72 h) above 3000 nM.
